In PubChem BioAssay (NCI):
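These data come from cells grown in 96-well plates and exposed to compound for 48 hours at five concentrations. Here, GI50 denotes the concentration required for 50% inhibition of growth. TGI is the concentration that stops growth completely.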

Columns and labels:
Assay in all cases: growth of human tumour cells (NCI), 48 h; in the data active = GI50 below about 0.43 µM; inactive = the rest
[1] = test system: HOP-62 NSCLC
[2] = test system: MOLT-4 leukemia
[3] = test system: HCT-116 colon
[4] = test system: SF-268 CNS
[5] = test system: HL-60(TB) leukemia
[6] = test system: LOX IMVI melanoma
[7] = test system: NCI-H226 lung
[8] = test system: SNB-75 CNS
[9] = test system: RXF 393 renal
[10] = test system: KM12 colon
[11] = test system: SW-620 colon
[12] = test system: K-562 leukemia
[13] = test system: A549 NSCLC
[14] = test system: OVCAR-8 ovarian
[15] = test system: 786-0 renal
[16] = test system: OVCAR-3 ovarian
[17] = test system: OVCAR-4 ovarian
[18] = test system: HT29 colon
[19] = test system: TK-10 renal
[20] = test system: NCI/ADR-RES ovarian
[21] = test system: EKVX NSCLC
[22] = test system: SK-MEL-28 melanoma
[23] = test system: OVCAR-5 ovarian
[24] = test system: SF-295 CNS
[25] = test system: UACC-257 melanoma
[26] = test system: M14 melanoma
[27] = test system: ACHN renal
[28] = test system: MDA-N
[29] = test system: HCT-15 colon
[30] = test system: DU-145 prostate
[31] = test system: A498 renal
[32] = test system: U251 CNS
[33] = test system: UACC-62 melanoma
[34] = test system: SK-MEL-5 melanoma
[35] = test system: COLO 205 colon
[36] = test system: NCI-H460 lung
[37] = test system: SNB-19 CNS
[38] = test system: NCI-H522 lung
[39] = test system: MALME-3M melanoma
[40] = test system: MDA-MB-231 breast
[41] = test system: SF-539 CNS
[42] = test system: HOP-92 NSCLC
[43] = test system: SN12C renal
[44] = test system: UO-31 renal
[45] = test system: HCC-2998 colon
[46] = test system: MDA-MB-435
[47] = test system: SR leukemia
[48] = test system: RPMI-8226 leukemia
[49] = test system: PC-3 prostate
[50] = test system: NCI-H23 lung
[51] = test system: CCRF-CEM leukemia
[52] = test system: HS 578T breast
[53] = test system: IGROV1 ovarian
[54] = test system: CAKI-1 renal
[55] = test system: SK-OV-3 ovarian
[56] = test system: BT-549 breast
[57] = test system: T-47D breast
[58] = test system: SK-MEL-2 melanoma
[59] = test system: MCF7 breast

O=c1c2cc([N+](=O)[O-])ccc2[nH]n1Cc1ccccn1
> 100 µM: TGI [1] | TGI [2] | TGI [3] | TGI [4] | TGI [5] | TGI [6] | TGI [7] | TGI [8] | TGI [9] | TGI [10] | TGI [11] | TGI [12] | TGI [13] | TGI [14] | TGI [15] | TGI [16] | TGI [17] | TGI [18] | TGI [19] | TGI [20] | TGI [21] | TGI [22] | TGI [23] | TGI [24] | TGI [25] | TGI [26] | TGI [27] | TGI [28] | TGI [29] | TGI [30] | TGI [31] | TGI [32] | TGI [33] | TGI [34] | TGI [35] | TGI [36] | TGI [37] | TGI [38] | TGI [39] | TGI [40] | TGI [41] | TGI [42] | TGI [43] | TGI [44] | TGI [45] | TGI [46] | TGI [47] | TGI [48] | TGI [49] | TGI [50] | TGI [51] | TGI [52] | TGI [53] | TGI [54]

COc1cc(NCCCCCN=C(N)N)c2ncccc2c1
> 100 µM: TGI [7] | TGI [11] | TGI [55] | TGI [13] | TGI [15] | TGI [20] | TGI [27] | TGI [29] | TGI [30] | TGI [31] | TGI [44] | TGI [54]
> 88.2 µM: TGI [12]
1.11 µM: TGI [59]
> 74.3 µM: TGI [51]
> 71.7 µM: TGI [14]
active: GI50 [17] 0.043 µM | GI50 [38] 0.369 µM | GI50 [59] 0.179 µM
> 93.4 µM: TGI [1]
> 49.6 µM: TGI [49]
40.4 µM: TGI [42]
19.4 µM: TGI [41]
inactive: GI50 [1] 10.1 µM | GI50 [2] 4.53 µM | GI50 [3] 2.74 µM | GI50 [4] 3.59 µM | GI50 [5] 3.46 µM | GI50 [6] 8.21 µM | GI50 [7] 16.8 µM | GI50 [8] 3.25 µM | GI50 [9] 24.9 µM | GI50 [10] 2.04 µM | GI50 [11] 4.97 µM | GI50 [55] 60 µM | GI50 [12] 5.16 µM | GI50 [13] 30 µM | GI50 [14] 4.24 µM | GI50 [15] 23.8 µM | GI50 [16] 0.468 µM | GI50 [18] 5.97 µM | GI50 [19] 3.43 µM | GI50 [20] > 100 µM | GI50 [21] 4.79 µM | GI50 [22] 14.6 µM | GI50 [23] 5.73 µM | GI50 [24] 17.1 µM | GI50 [25] 4.38 µM | GI50 [26] 17.7 µM | GI50 [27] 41.5 µM | GI50 [29] 43.9 µM | GI50 [30] 35.1 µM | GI50 [31] 42.5 µM | GI50 [32] 3.23 µM | GI50 [33] 7.2 µM | GI50 [34] 2.31 µM | GI50 [35] 2.92 µM | GI50 [36] 7.09 µM | GI50 [37] 5.62 µM | GI50 [56] 5.38 µM | GI50 [57] 1.07 µM | GI50 [39] 1.97 µM | GI50 [40] 2.65 µM | GI50 [41] 4.68 µM | GI50 [42] 2.69 µM | GI50 [43] 3.57 µM | GI50 [44] > 100 µM | GI50 [45] 3.97 µM | GI50 [58] 3.31 µM | GI50 [46] 16.7 µM | GI50 [47] 6.28 µM | GI50 [48] 5.45 µM | GI50 [49] 3.47 µM | GI50 [50] 1.74 µM | GI50 [51] 5.1 µM | GI50 [52] 19 µM | GI50 [53] 1.03 µM | GI50 [54] > 100 µM
16.7 µM: TGI [25]
> 36 µM: TGI [53]
24 µM: TGI [33]
> 56.1 µM: TGI [6]
0.953 µM: TGI [17]
> 63.5 µM: TGI [3]
15.2 µM: TGI [5]
9.03 µM: TGI [16]
9.3 µM: TGI [35]
40.6 µM: TGI [47]
25.8 µM: TGI [32]
97.8 µM: TGI [24]
> 80.7 µM: TGI [18]
8.92 µM: TGI [39]
16.1 µM: TGI [58]
4.85 µM: TGI [38]
14.5 µM: TGI [10]
38.6 µM: TGI [22]
18.9 µM: TGI [50]
16.6 µM: TGI [8]
> 50.5 µM: TGI [21]
> 74.4 µM: TGI [2]
17.1 µM: TGI [19]
42.3 µM: TGI [46]
54.1 µM: TGI [26]
33.5 µM: TGI [48]
18.5 µM: TGI [56]
> 33.9 µM: TGI [45]
6.86 µM: TGI [34]
12.3 µM: TGI [40]
> 65.4 µM: TGI [52]
30 µM: TGI [23]
> 57.5 µM: TGI [36]
13.7 µM: TGI [43]
6.98 µM: TGI [57]
22.6 µM: TGI [4]
> 94.7 µM: TGI [9]
30.3 µM: TGI [37]
